# Test results reported in PubChem BioAssay (NCI).
#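 Five concentrations, 48 hours, 96-well plates. GI50 marks 50% less growth. TGI marks complete inhibition of growth.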
# Columns and labels:
# Assay in all cases: NCI anticancer screen, dose series, 48 h
# [1] = test system: 786-0 renal
# [2] = test system: A498 renal
# [3] = test system: A549 NSCLC
# [4] = test system: ACHN renal
# [5] = test system: BT-549 breast
# [6] = test system: CAKI-1 renal
# [7] = test system: CCRF-CEM leukemia
# [8] = test system: COLO 205 colon
# [9] = test system: DU-145 prostate
# [10] = test system: EKVX NSCLC
# [11] = test system: HCC-2998 colon
# [12] = test system: HCT-116 colon
# [13] = test system: HCT-15 colon
# [14] = test system: HL-60(TB) leukemia
# [15] = test system: HOP-62 NSCLC
# [16] = test system: HOP-92 NSCLC
# [17] = test system: HT29 colon
# [18] = test system: IGROV1 ovarian
# [19] = test system: K-562 leukemia
# [20] = test system: KM12 colon
# [21] = test system: LOX IMVI melanoma
# [22] = test system: M14 melanoma
# [23] = test system: MALME-3M melanoma
# [24] = test system: MCF7 breast
# [25] = test system: MDA-MB-231 breast
# [26] = test system: MDA-MB-435
# [27] = test system: MDA-MB-468 breast
# [28] = test system: MOLT-4 leukemia
# [29] = test system: NCI-H226 lung
# [30] = test system: NCI-H23 lung
# [31] = test system: NCI-H460 lung
# [32] = test system: NCI/ADR-RES ovarian
# [33] = test system: OVCAR-3 ovarian
# [34] = test system: OVCAR-4 ovarian
# [35] = test system: OVCAR-5 ovarian
# [36] = test system: OVCAR-8 ovarian
# [37] = test system: PC-3 prostate
# [38] = test system: RPMI-8226 leukemia
# [39] = test system: RXF 393 renal
# [40] = test system: SF-268 CNS
# [41] = test system: SF-295 CNS
# [42] = test system: SF-539 CNS
# [43] = test system: SK-MEL-2 melanoma
# [44] = test system: SK-MEL-28 melanoma
# [45] = test system: SK-MEL-5 melanoma
# [46] = test system: SK-OV-3 ovarian
# [47] = test system: SN12C renal
# [48] = test system: SNB-19 CNS
# [49] = test system: SNB-75 CNS
# [50] = test system: SR leukemia
# [51] = test system: SW-620 colon
# [52] = test system: T-47D breast
# [53] = test system: TK-10 renal
# [54] = test system: U251 CNS
# [55] = test system: UACC-257 melanoma
# [56] = test system: UACC-62 melanoma
# [57] = test system: UO-31 renal
# [58] = test system: HS 578T breast
# [59] = test system: NCI-H522 lung
compound,measurement,setting,value
COc1cc2c(cc1OC)/C(=C\c1sc(Nc3ccc(O)cc3)nc1O)C(C(=O)O)=N2,GI50,[1],0.513 µM
same,TGI,[1],45.1 µM
same,GI50,[2],32.1 µM
same,TGI,[2],> 100 µM
same,GI50,[3],21.6 µM
same,TGI,[3],> 100 µM
same,GI50,[4],6.53 µM
same,TGI,[4],> 100 µM
same,GI50,[5],0.654 µM
same,TGI,[5],75 µM
same,GI50,[6],95.5 µM
same,TGI,[6],> 100 µM
same,GI50,[7],0.413 µM
same,TGI,[7],> 100 µM
same,GI50,[8],1.44 µM
same,TGI,[8],9.07 µM
same,GI50,[9],0.588 µM
same,TGI,[9],33.3 µM
same,GI50,[10],11.2 µM
same,TGI,[10],> 100 µM
same,GI50,[11],0.631 µM
same,TGI,[11],> 100 µM
same,GI50,[12],0.489 µM
same,TGI,[12],> 100 µM
same,GI50,[13],0.783 µM
same,TGI,[13],> 100 µM
same,GI50,[14],0.291 µM
same,TGI,[14],0.986 µM
same,GI50,[15],0.62 µM
same,TGI,[15],59.1 µM
same,GI50,[16],5.89 µM
same,TGI,[16],91.6 µM
same,GI50,[17],2.83 µM
same,TGI,[17],26 µM
same,GI50,[18],2.7 µM
same,TGI,[18],> 100 µM
same,GI50,[19],0.369 µM
same,TGI,[19],> 100 µM
same,GI50,[20],0.557 µM
same,TGI,[20],> 100 µM
same,GI50,[21],0.501 µM
same,TGI,[21],> 100 µM
same,GI50,[22],0.376 µM
same,TGI,[22],30 µM
same,GI50,[23],0.336 µM
same,TGI,[23],> 100 µM
same,GI50,[24],0.394 µM
same,TGI,[24],> 100 µM
same,GI50,[25],1.32 µM
same,TGI,[25],63.3 µM
same,GI50,[26],0.187 µM
same,TGI,[26],0.389 µM
same,GI50,[27],1.12 µM
same,TGI,[27],5.29 µM
same,GI50,[28],0.446 µM
same,TGI,[28],> 100 µM
same,GI50,[29],16.6 µM
same,TGI,[29],> 100 µM
same,GI50,[30],0.815 µM
same,TGI,[30],41.8 µM
same,GI50,[31],0.954 µM
same,TGI,[31],> 100 µM
same,GI50,[32],> 100 µM
same,TGI,[32],> 100 µM
same,GI50,[33],0.287 µM
same,TGI,[33],0.797 µM
same,GI50,[34],4.57 µM
same,TGI,[34],> 100 µM
same,GI50,[35],4.51 µM
same,TGI,[35],> 100 µM
same,GI50,[36],0.775 µM
same,TGI,[36],> 100 µM
same,GI50,[37],0.666 µM
same,TGI,[37],> 100 µM
same,GI50,[38],5.17 µM
same,TGI,[38],> 100 µM
same,GI50,[39],0.527 µM
same,TGI,[39],3.21 µM
same,GI50,[40],0.581 µM
same,TGI,[40],> 100 µM
same,GI50,[41],0.498 µM
same,TGI,[41],14.1 µM
same,GI50,[42],0.456 µM
same,TGI,[42],2.76 µM
same,GI50,[43],0.586 µM
same,TGI,[43],86.3 µM
same,GI50,[44],0.842 µM
same,TGI,[44],> 100 µM
same,GI50,[45],0.51 µM
same,TGI,[45],28.4 µM
same,GI50,[46],0.817 µM
same,TGI,[46],> 100 µM
same,GI50,[47],2.05 µM
same,TGI,[47],> 100 µM
same,GI50,[48],0.462 µM
same,TGI,[48],27.8 µM
same,GI50,[49],0.217 µM
same,TGI,[49],2.95 µM
same,GI50,[50],0.277 µM
same,TGI,[50],> 100 µM
same,GI50,[51],0.449 µM
same,TGI,[51],> 100 µM
same,GI50,[52],2.91 µM
same,TGI,[52],> 100 µM
same,GI50,[53],5.73 µM
same,TGI,[53],> 100 µM
same,GI50,[54],0.353 µM
same,TGI,[54],16.7 µM
same,GI50,[55],1.91 µM
same,TGI,[55],> 100 µM
same,GI50,[56],0.498 µM
same,TGI,[56],> 100 µM
same,GI50,[57],4.2 µM
same,TGI,[57],> 100 µM
Cc1ccc(C(=O)NN2C(=O)/C(=C/C=C/c3ccc([N+](=O)[O-])o3)SC2=S)cc1,GI50,[1],0.451 µM
same,TGI,[1],1.62 µM
same,GI50,[2],9.16 µM
same,TGI,[2],22.9 µM
same,GI50,[3],2.18 µM
same,TGI,[3],5.9 µM
same,GI50,[4],0.684 µM
same,TGI,[4],1.86 µM
same,GI50,[5],0.218 µM
same,TGI,[5],0.705 µM
same,GI50,[6],0.911 µM
same,TGI,[6],2.19 µM
same,GI50,[7],0.238 µM
same,TGI,[7],0.826 µM
same,GI50,[8],0.348 µM
same,TGI,[8],1.07 µM
same,GI50,[9],1.5 µM
same,TGI,[9],2.92 µM
same,GI50,[10],0.543 µM
same,TGI,[10],1.85 µM
same,GI50,[11],0.486 µM
same,TGI,[11],1.72 µM
same,GI50,[12],0.139 µM
same,TGI,[12],0.29 µM
same,GI50,[13],0.125 µM
same,TGI,[13],0.295 µM
same,GI50,[14],1.88 µM
same,TGI,[14],10.5 µM
same,GI50,[15],1.6 µM
same,TGI,[15],3.12 µM
same,GI50,[16],0.245 µM
same,TGI,[16],0.893 µM
same,GI50,[58],1.86 µM
same,TGI,[58],6.54 µM
same,GI50,[17],0.222 µM
same,TGI,[17],0.542 µM
same,GI50,[18],0.811 µM
same,TGI,[18],2.11 µM
same,GI50,[19],0.188 µM
same,TGI,[19],3.48 µM
same,GI50,[20],1.16 µM
same,TGI,[20],4.49 µM
same,GI50,[21],0.179 µM
same,TGI,[21],0.352 µM
same,GI50,[22],0.202 µM
same,TGI,[22],0.436 µM
same,GI50,[23],0.177 µM
same,TGI,[23],0.378 µM
same,GI50,[24],0.413 µM
same,TGI,[24],1.89 µM
same,GI50,[25],0.185 µM
same,TGI,[25],0.373 µM
same,GI50,[26],0.267 µM
same,TGI,[26],0.8 µM
same,GI50,[27],1.5 µM
same,TGI,[27],3.12 µM
same,GI50,[28],0.294 µM
same,TGI,[28],2.67 µM
same,GI50,[29],0.509 µM
same,TGI,[29],1.24 µM
same,GI50,[30],0.337 µM
same,TGI,[30],1.17 µM
same,GI50,[31],0.399 µM
same,TGI,[31],1.57 µM
same,GI50,[59],0.185 µM
same,TGI,[59],0.363 µM
same,GI50,[32],1.22 µM
same,TGI,[32],2.88 µM
same,GI50,[33],0.752 µM
same,TGI,[33],2.63 µM
same,GI50,[34],1.6 µM
same,TGI,[34],3.1 µM
same,GI50,[35],1.43 µM
same,TGI,[35],2.79 µM
same,GI50,[36],0.292 µM
same,TGI,[36],1.02 µM
same,GI50,[37],1.14 µM
same,TGI,[37],3 µM
same,GI50,[38],0.267 µM
same,TGI,[38],1.17 µM
same,GI50,[39],0.789 µM
same,TGI,[39],2.14 µM
same,GI50,[40],1.96 µM
same,TGI,[40],4.82 µM
same,GI50,[41],1.76 µM
same,TGI,[41],3.48 µM
same,GI50,[42],0.251 µM
same,TGI,[42],0.718 µM
same,GI50,[43],0.283 µM
same,TGI,[43],0.904 µM
same,GI50,[44],1.09 µM
same,TGI,[44],2.31 µM
same,GI50,[45],0.337 µM
same,TGI,[45],1.24 µM
same,GI50,[46],1.77 µM
same,TGI,[46],3.35 µM
same,GI50,[47],0.207 µM
same,TGI,[47],0.535 µM
same,GI50,[48],1.61 µM
same,TGI,[48],3.01 µM
same,GI50,[49],1.3 µM
same,TGI,[49],3.17 µM
same,GI50,[50],0.0468 µM
same,TGI,[50],> 100 µM
same,GI50,[51],0.181 µM
same,TGI,[51],0.389 µM
same,GI50,[52],1.73 µM
same,TGI,[52],3.48 µM
same,GI50,[53],1.68 µM
same,TGI,[53],3.58 µM
same,GI50,[54],0.701 µM
same,TGI,[54],1.97 µM
same,GI50,[55],1.67 µM
same,TGI,[55],3.55 µM
same,GI50,[56],0.378 µM
same,TGI,[56],1.21 µM
same,GI50,[57],1.21 µM
same,TGI,[57],2.45 µM
